Source: ChEMBL document CHEMBL5291721, “A preclinical secondary pharmacology resource illuminates target-adverse drug reaction associations of marketed drugs” (Nat Commun, 2023)

What follows are compounds tested against Beta-1 adrenergic receptor (Homo sapiens, UniProt P08588).
Type: functional, cell-based
Further: assay procedure not described here.

Beta-1 adrenergic receptor, sequence (P08588 whole entry): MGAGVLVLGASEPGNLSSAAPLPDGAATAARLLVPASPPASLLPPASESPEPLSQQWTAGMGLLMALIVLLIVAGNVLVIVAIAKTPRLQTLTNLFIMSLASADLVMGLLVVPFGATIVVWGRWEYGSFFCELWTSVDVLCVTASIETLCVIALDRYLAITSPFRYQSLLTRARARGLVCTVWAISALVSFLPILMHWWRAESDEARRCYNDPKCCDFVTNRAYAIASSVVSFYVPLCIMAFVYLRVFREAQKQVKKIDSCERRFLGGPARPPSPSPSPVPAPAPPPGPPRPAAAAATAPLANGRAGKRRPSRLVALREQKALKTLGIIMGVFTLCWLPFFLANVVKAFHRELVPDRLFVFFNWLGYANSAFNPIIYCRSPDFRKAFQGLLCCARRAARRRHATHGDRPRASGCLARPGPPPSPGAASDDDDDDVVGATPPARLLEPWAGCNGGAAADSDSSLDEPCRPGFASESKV

SMILES	AC50
C1=Cc2cccc(OCC3CNCCO3)c2C1 (stereo unspecified) [INDELOXAZINE]	> 30 µM
O=C(O)Cc1cn(-c2ccccc2)nc1-c1ccc(Cl)cc1 [LONAZOLAC]	> 30 µM
C#C[C@]1(O)CC[C@H]2[C@@H]3CCC4=CCCC[C@@H]4[C@H]3CC[C@@]21C [LYNESTRENOL]	> 30 µM
C[C@]12CCC(=O)C=C1CC[C@@H]1[C@@H]2CC[C@@]2(C)[C@H]1CC[C@]2(C)O [METHYLTESTOSTERONE]	> 30 µM
COc1c(C)c2c(c(O)c1C/C=C(\C)CCC(=O)OCCN1CCOCC1)C(=O)OC2 [MYCOPHENOLATE MOFETIL]	> 30 µM
Cc1c(Cl)cccc1Nc1ccccc1C(=O)O [TOLFENAMIC ACID]	> 30 µM
